In publication PMC3578829, “A Small Molecule (Pluripotin) as a Tool for Studying Cancer Stem Cell Biology: Proof of Concept” (PLoS ONE, 2013):
Where “and” joins values, the source holds several entries; their conditions need not be identical. Equal entries are not always repeated.

Columns and labels:
[1] = test system: Seven Colon Tumor Lines of the NCI60 Panel; experiment: Limiting dilution tumorigenicity, combined colon tumor lines; format: in vivo, NOD.SCID mice; conditions: for Tumor take rate, TOTAL: 7 colon tumor lines treated 5 days with 0.1 µM SC-1
Protocol: (§1) Five day exposures were conducted.
Six week old female NOD.SCID mice were randomly assigned to each of 20 treatment arms (n = 5/group). Treated and control colon tumor lines were enzymatically harvested and counted prior to dilution in RPMI 1640 (at 10, 100, 1,000, 10,000 cells/inoculum) for subcutaneous injection into the axillary region using a volume of […]. Positive control groups were established such that tumor formation occurred in all mice in approximately one week thus confirming that all tumor lines studied were tumorigenic. Cell inocula for the positive control groups ranged from 1×10^6 to 2.5×10^6. Cell viability of the cell stocks was assessed by trypan blue exclusion prior to dilution for injection and was routinely found to be >95%. Tumor formation was monitored weekly using caliper measurements and the tumor mass was calculated as weight in mg = 1/2×(tumor length)×(tumor width)^2. All experiments were terminated at 120 days or when tumor weight exceeded 2000 mg for any individual mouse. In selected studies, tumor cells were resuspended in Matrigel (50% concentration, BD Biosciences) prior to injection.
Chi square tests and nonparametric conditional estimate for the Cochran Mantel-Haenzel common odds ratio were performed for the limiting dilution tumorigenicity studies. In the later case, the tumor lines were used as the stratification variable and the test evaluated whether the tumor take rate was equal in the two groups (control and treated). The purpose of combining data across distinct colon tumor lines was to aggregate small changes that if summed, may represent a heterogeneous population of patients with colon tumors, similar to analyses in clinical trials.

[2] = test system: COLO 205; experiment: Sphere formation assay (5% FBS); format: cell-based; parameters: key: Y indicates the presence of spheres following SC-1 treatment
Protocol: (§2) The 7 colon tumor lines were seeded in […] tissue culture treated dishes (Falcon) at low density (62,500 cells/ml) in complete media containing 5% FBS one day prior to addition of 0.1 µM SC-1 (final cell concentration 31,250 cells/ml). Photomicrographs were prepared on day 1 and day 5 following compound treatment utilizing a Zeiss XM inverted microscope and CCD cooled-camera imaging system. Nonadherent spheres were defined as floating, circular structures with well defined borders. Occasionally, exceptionally large spheres re-adhered to the tissue culture surface. Aggregates of floating cells or grape-like clusters were not considered spheres.

[3] = test system: HCT-116; experiment: Sphere formation assay (5% FBS); format: cell-based; parameters: key: Y indicates the presence of spheres following SC-1 treatment
Protocol: as §2

[4] = test system: HT29; experiment: Sphere formation assay (5% FBS); format: cell-based; parameters: key: Y indicates the presence of spheres following SC-1 treatment
Protocol: as §2

[5] = test system: HCT-116; experiment: FACS analysis of putative CSC surface markers; format: cell-based; parameters: key to Change in Surface Marker Expression: Y indicates increased putative surface marker expression using the panel of 6 antibodies described in the Material and Methods
Text: (§3) A BD FACsAria (BD Biosciences, San Jose, CA) was utilized for FACS analysis according to standard procedures. The instrument was equipped with a 488 nm 100 mW blue laser, a 638 nm 30 mW red laser, and a 405 nm 50 mW violet laser. The software package Diva 5.0 (BD Biosciences) was used for collection and analysis of data. The alignment of the three lasers in the flow cell was verified prior to running tumor cell samples by running Rainbow Beads (Spherotech). The six colors being used in the analysis were then compensated to account for spectral overlap emitted by the fluorochromes within each laser as well as across the lasers using a semi-automated process. This was done using compensation beads (BD Biosciences) that were coated with anti-mouse antibodies. The beads were incubated with each individual antibody used in the six-color panel for 15 min at room temperature. An unstained tube was also prepared. The unstained beads along with beads stained for each fluorochrome were run individually, recording 5000 events. The data was then run through the Diva software compensation matrices and the amount of “spectral bleed” from other fluorochromes into the fluorochrome of interest’s channel was determined and automatically compensated.
(§4) Treated and untreated cells (1×10^6 cells/condition) were harvested with trypsin EDTA (Invitrogen), washed, and then labeled with a six antibody cocktail (antibodies against the following epitopes: CD44, CD24, CD133, CD326, CD166, and P-glycoprotein in PBS without calcium and magnesium supplemented with 2% FBS) or appropriate isotype control antibodies. An unstained control was also prepared. The specific amounts needed for each labeled antibody were determined through titration studies. All cells were incubated with antibody for 15 minutes on ice and in the dark. The cells were then washed, resuspended in buffer, and analyzed on the FACsAria. For each experimental condition, the isotype control tube was evaluated first and 10,000 events were collected. Forward vs. side scatter gates were then established to eliminate likely debris. Further gating was determined for each conjugated isotype control antibody such that 1% of the population was considered a positive staining event. Cells stained with specific labeled antibodies were then evaluated and 10,000 events collected.

[6] = test system: HT29; experiment: FACS analysis of putative CSC surface markers; format: cell-based; parameters: key to Change in Surface Marker Expression: Y indicates increased putative surface marker expression using the panel of 6 antibodies described in the Material and Methods
Text: as §3, §4

[7] = test system: SW-620; experiment: FACS analysis of putative CSC surface markers; format: cell-based; parameters: key to Change in Surface Marker Expression: Y indicates increased putative surface marker expression using the panel of 6 antibodies described in the Material and Methods
Text: as §3, §4

[8] = test system: COLO 205; experiment: Cell growth after five day exposure; format: cell-based; conditions: 0.1 µM added day 1, harvested 5 days later
Protocol: as §1

[9] = test system: HCC-2998; experiment: Cell growth after five day exposure; format: cell-based; conditions: 0.1 µM added day 1, harvested 5 days later
Protocol: as §1

[10] = test system: HCT-116; experiment: Cell growth after five day exposure; format: cell-based; conditions: 0.1 µM added day 1, harvested 5 days later
Protocol: as §1

[11] = test system: HCT-15; experiment: Cell growth after five day exposure; format: cell-based; conditions: 0.1 µM added day 1, harvested 5 days later
Protocol: as §1

[12] = test system: HT29; experiment: Cell growth after five day exposure; format: cell-based; conditions: 0.1 µM added day 1, harvested 5 days later
Protocol: as §1

[13] = test system: KM12; experiment: Cell growth after five day exposure; format: cell-based; conditions: 0.1 µM added day 1, harvested 5 days later
Protocol: as §1

[14] = test system: SW-620; experiment: Cell growth after five day exposure; format: cell-based; conditions: 0.1 µM added day 1, harvested 5 days later
Protocol: as §1

[15] = target: T1, PIM1 (Homo sapiens, UniProt P11309); experiment: Miniaturized 33P-based kinase screening assay; format: biochemical; conditions: max 10 µM, 3-fold serial dilution, n = 2
T1 construct: purchased Reaction Biology Corporation (Malvern, PA), contract assay
T1 sequence (P11309 whole entry): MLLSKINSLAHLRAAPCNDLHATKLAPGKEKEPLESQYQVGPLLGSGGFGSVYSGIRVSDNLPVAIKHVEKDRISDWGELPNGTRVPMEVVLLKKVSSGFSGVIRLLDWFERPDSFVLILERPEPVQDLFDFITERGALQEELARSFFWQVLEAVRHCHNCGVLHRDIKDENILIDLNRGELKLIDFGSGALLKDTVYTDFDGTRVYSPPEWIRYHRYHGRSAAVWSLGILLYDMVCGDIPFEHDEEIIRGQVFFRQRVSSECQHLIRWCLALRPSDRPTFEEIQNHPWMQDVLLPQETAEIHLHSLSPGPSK
Protocol: The RSK2 in vitro kinase inhibition assay utilized was a modification of protocols established by Nguyen et al.. Additional protocols that confirmed the results depicted in Figure 4 and evaluated kinase inhibitory activity in a random selection of protein kinases (Table 3) were conducted at Reaction Biology Corporation (Malvern, PA). This was a miniaturized ^33P-based screening assay.

[16] = five days of SC-1 treatment, mean±s.e.m., n = 3

Cc1cc(Nc2ncc3c(n2)N(C)C(=O)N(c2cc(NC(=O)c4cccc(C(F)(F)F)c4)ccc2C)C3)n(C)n1 [SC-1]
Tumor take rate, TOTAL ([1]; 100 cells inoculated s.c.): 2/35
Tumor take rate, TOTAL ([1]; 1000 cells inoculated s.c.): 6/35
Tumor take rate, TOTAL ([1]; 10000 cells inoculated s.c.): 19 of 35 and 19/35
Frequency estimate of tumor initiating ability, increase vs control ([1]; cumulative tumor take rate, 7 colon tumor lines, calculated from Taswell): approximately 2 fold
Mean day to 1000 mg tumor ([1]; mean±s.e.m. of 5 colon lines forming tumors, 10,000 cells/inoculum, 0.1 µM SC-1 pretreatment): 83 ± 19 days
Sphere formation ([2]; 0.1 µM SC-1, 5% FBS): sphere formation occurred in a fraction
Sphere formation ([2]; summary of SC-1 effects): Y
Sphere formation ([3]; 0.1 µM SC-1, 5% FBS, 24 hrs): uniform nonadherent spheres with well-defined borders formed
Sphere formation ([3]; summary of SC-1 effects): Y
Sphere formation ([4]; 0.1 µM SC-1, 5% FBS, 24 hrs): uniform nonadherent spheres with well-defined borders formed
Sphere formation ([4]; summary of SC-1 effects): Y
CD44+ CD24- subpopulation ([5]; after SC-1 treatment): increased
Change in Surface Marker Expression ([5]; marker CD44+ CD24−, summary of SC-1 effects): Y (CD44+ CD24−)
Cells expressing the CD133 glycosylated epitope [6, 16]: 27.6±3.6 % positive
Change in Surface Marker Expression ([6]; marker CD133+, summary of SC-1 effects): Y (CD133+)
CD44 subpopulation [7, 16]: 74.1±13.4 % positive
Change in Surface Marker Expression ([7]; marker CD44+, summary of SC-1 effects): Y (CD44+)
Fold Change from Initial Inocula [8]: 2
Fold Change from Initial Inocula [9]: 4
Fold Change from Initial Inocula [10]: 31
Fold Change from Initial Inocula [11]: 19.8
Fold Change from Initial Inocula [12]: 17.5
Fold Change from Initial Inocula [13]: 20.6
Fold Change from Initial Inocula [14]: 27.5
IC50 [15]: ≥ 10 µM
